Results: US11986540B2, “Compositions including pafolacianine for the identification of malignant lesions” (ON TARGET LABORATORIES, LLC., priority 2022, dated 2024)
Where two headings read alike, the source gives them in different places.

What was measured:
[1] = tested on: panel of 55 pharmacologically-relevant receptors, ion channels and transporters; test: In vitro ligand binding screen (ExpresSProfile; Cerep); conditions: 5 μM
Experimental: Pafolacianine (5 μM) was evaluated in an in vitro ligand binding screen (ExpresSProfile; Cerep 100010238), which assessed the potential for pafolacianine “off-target” binding to a broad panel of 55 pharmacologically-relevant receptors, ion channels and transporters.

[2] = tested on: FR-negative A549 cell tumor xenografts; test: Whole body imaging and tissue distribution, FR-negative A549 tumor xenografts; format: in vivo, mice
Experimental: The optimal dose range for pafolacianine with respect to tumor-to-background ratio in FR-positive tumor-bearing mice was 1 to 30 nmol/mouse, with lower fluorescence intensity observed in tumors at a lower dose (0.3 nmol) and higher fluorescence intensity observed in other tissues at doses above 30 nmol. In a second experiment, pafolacianine whole body imaging and tissue distribution was examined again; however, this experiment was performed in female nu/nu mice bearing FR-negative A549 cell tumor xenografts.

FR = biological target: T1, FR (Homo sapiens, UniProt P15328); test: [3H]-folic acid competition binding on KB cells
T1 construct: KB cells (a derivative of HeLa cells) that over-express FR; endogenous in cells; host or cells: KB cells (HeLa derivative)
T1 sequence (P15328 25-234): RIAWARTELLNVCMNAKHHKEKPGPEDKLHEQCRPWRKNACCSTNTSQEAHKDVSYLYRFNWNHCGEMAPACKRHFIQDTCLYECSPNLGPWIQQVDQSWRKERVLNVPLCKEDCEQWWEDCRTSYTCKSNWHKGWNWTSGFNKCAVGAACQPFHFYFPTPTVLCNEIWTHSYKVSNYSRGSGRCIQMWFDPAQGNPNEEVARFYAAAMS

[3] = Single IV dose toxicokinetics in dogs; format: in vivo; conditions: for AUC(0-t) / C0: dog, in vivo
Experimental: Following a single IV administration of pafolacianine to male and female dogs, systemic exposure (C0, AUClast) to pafolacianine appeared similar between males and females at all dose levels (Table 3). Similar to rats, dog AUClast values were calculated from a range of concentration-time data with Tlast values varying from 5 minutes to 4 hours. In addition, there were limited dogs with reportable TK at 0.9 mg/kg (N=1-2). As a consequence, dose proportionality was not assessed for dogs. Terminal data were generally sparse (i.e., 2 or fewer measurable concentrations in the terminal phase, (FIG. 4). Similar to rat, parameters dependent on accurate determination of the terminal phase (AUCinf, T1/2, CL, Vz) were not reported.

[4] = Plasma protein binding, equilibrium dialysis, dog plasma; format: in vitro ADME; conditions: Beagle, read-out: mean (±SD) percentage of plasma protein bound (converted)
Experimental: The plasma protein binding of pafolacianine was studied in vitro in fresh human, Sprague Dawley rat, and Beagle dog plasma using equilibrium dialysis. Pafolacianine was introduced into plasma samples, in duplicate, resulting in a final concentration of 5 μM. The mean (±SD) percentage of plasma protein bound pafolacianine was 99.1±0.1%, 98.6±0.1%, and 93.7±1.5% for rat, dog and human, respectively. Pafolacianine was highly bound to plasma protein in all species examined.

[5] = Repeat once-weekly IV dose toxicokinetics in rats; format: in vivo; conditions: for increase in AUCinf: after 14.9-fold increase in dose; for half-life / AUC(0-inf) / C0 / clearance / Vd: rat, in vivo; for Vd: read-out: Vss
Experimental: […] On both Day 1 and Day 13, increases in pafolacianine exposure (AUCinf) were trending slightly greater than dose proportional, noting that sparse blood sampling was employed so the variability in the AUCs could not be assessed. […] CL was slow (relative to hepatic blood flow) and Vss was moderate. Mean T1/2 ranged from approximately 6 to 11 hours.

[6] = female dogs, 0.9 mg/kg single IV, Study Day 0, N = 1
[7] = female dogs, 9.3 mg/kg single IV, Study Day 0
[8] = female dogs, 13.9 mg/kg single IV, Study Day 0
[9] = male dogs, 0.9 mg/kg single IV, Study Day 0, N = 2
[10] = male dogs, 9.3 mg/kg single IV, Study Day 0
[11] = male dogs, 13.9 mg/kg single IV, Study Day 0
[12] = female, iv, 3.1 mg/kg, rats F, 3.1 mg/kg once-weekly IV, Day 0
[13] = female, iv, 3.1 mg/kg, rats F, 3.1 mg/kg once-weekly IV, Day 13
[14] = female, iv, 30.8 mg/kg, rats F, 30.8 mg/kg once-weekly IV, Day 0
[15] = female, iv, 30.8 mg/kg, rats F, 30.8 mg/kg once-weekly IV, Day 13
[16] = female, iv, 46.3 mg/kg, rats F, 46.3 mg/kg once-weekly IV, Day 0
[17] = female, iv, 46.3 mg/kg, rats F, 46.3 mg/kg once-weekly IV, Day 13
[18] = male, iv, 3.1 mg/kg, rats M, 3.1 mg/kg once-weekly IV, Day 0
[19] = male, iv, 3.1 mg/kg, rats M, 3.1 mg/kg once-weekly IV, Day 13
[20] = male, iv, 30.8 mg/kg, rats M, 30.8 mg/kg once-weekly IV, Day 0
[21] = male, iv, 30.8 mg/kg, rats M, 30.8 mg/kg once-weekly IV, Day 13
[22] = male, iv, 46.3 mg/kg, rats M, 46.3 mg/kg once-weekly IV, Day 0
[23] = male, iv, 46.3 mg/kg, rats M, 46.3 mg/kg once-weekly IV, Day 13
[24] = rats F, 3.1 mg/kg once-weekly IV, Day 13
[25] = rats F, 30.8 mg/kg once-weekly IV, Day 13
[26] = rats F, 46.3 mg/kg once-weekly IV, Day 13
[27] = rats M, 3.1 mg/kg once-weekly IV, Day 13
[28] = rats M, 30.8 mg/kg once-weekly IV, Day 13
[29] = rats M, 46.3 mg/kg once-weekly IV, Day 13

CC1(C)C(=CC=C2CCCC(C=CC3=[N+](CCCCS(=O)(=O)[O-])c4ccc(S(=O)(=O)O)cc4C3(C)C)=C2Oc2ccc(CC(NC(=O)c3ccc(NCc4cnc5nc(N)[nH]c(=O)c5n4)cc3)C(=O)O)cc2)N(CCCCS(=O)(=O)O)c2ccc(S(=O)(=O)O)cc21 (stereo not drawn) [pafolacianine]
affinity to off-target proteins [1]: no significant affinity
fluorescence in FR-negative tumors [2]: no fluorescence observed
fluorescence in kidneys [2]: fluorescence was primarily noted in kidneys
competition with [3H]-folic acid for the receptor (FR): competed well
AUC(0-t) [3, 6]: 362 ng·h/mL
C0 [3, 6]: 4.36 µg/mL
AUC(0-t) [3, 7]: 17600 ng·h/mL
C0 [3, 7]: 61.5 µg/mL
AUC(0-t) [3, 8]: 44000 ng·h/mL
C0 [3, 8]: 109 µg/mL
AUC(0-t) [3, 9]: 397 ng·h/mL
C0 [3, 9]: 3.79 µg/mL
AUC(0-t) [3, 10]: 16800 ng·h/mL
C0 [3, 10]: 58.5 µg/mL
AUC(0-t) [3, 11]: 42100 ng·h/mL
C0 [3, 11]: 107 µg/mL
DN AUClast [3, 6]: 0.402 (μg · h/mL)/(mg/kg)
DN AUClast [3, 7]: 1.89 (μg · h/mL)/(mg/kg)
DN AUClast [3, 8]: 3.17 (μg · h/mL)/(mg/kg)
DN AUClast [3, 9]: 0.442 (μg · h/mL)/(mg/kg)
DN AUClast [3, 10]: 1.81 (μg · h/mL)/(mg/kg)
DN AUClast [3, 11]: 3.03 (μg · h/mL)/(mg/kg)
fraction unbound at 5 μM [4]: 0.014
increase in AUCinf ([5]; Day 1, genders combined): ~18 fold
increase in AUCinf ([5]; Day 13, genders combined): ~20 fold
half-life ([5]; both sexes, intravenous, rats, all doses and days, read-out: Mean T1/2 range): 6 to 11 h
AUC(0-inf) [5, 12]: 19100 ng·h/mL
C0 [5, 12]: 21.2 µg/mL
clearance [5, 12]: 2.72 mL/min/kg
half-life ([5]; female, iv, 3.1 mg/kg, rats F, 3.1 mg/kg once-weekly IV, Day 0, read-out: T1/2 (converted)): 7.18 h
Vd [5, 12]: 1.08 L/kg
AUC(0-inf) [5, 13]: 16600 ng·h/mL
C0 [5, 13]: 4.76 µg/mL
clearance [5, 13]: 3.1 mL/min/kg
half-life ([5]; female, iv, 3.1 mg/kg, rats F, 3.1 mg/kg once-weekly IV, Day 13, read-out: T1/2 (converted)): 8.43 h
Vd [5, 13]: 1.7 L/kg
AUC(0-inf) [5, 14]: 237000 ng·h/mL
C0 [5, 14]: 194 µg/mL
clearance [5, 14]: 2.17 mL/min/kg
half-life ([5]; female, iv, 30.8 mg/kg, rats F, 30.8 mg/kg once-weekly IV, Day 0, read-out: T1/2 (converted)): 8.69 h
Vd [5, 14]: 1.14 L/kg
AUC(0-inf) [5, 15]: 291000 ng·h/mL
C0 [5, 15]: 105 µg/mL
clearance [5, 15]: 1.77 mL/min/kg
half-life ([5]; female, iv, 30.8 mg/kg, rats F, 30.8 mg/kg once-weekly IV, Day 13, read-out: T1/2 (converted)): 6.06 h
Vd [5, 15]: 0.773 L/kg
AUC(0-inf) [5, 16]: 361000 ng·h/mL
C0 [5, 16]: 245 µg/mL
clearance [5, 16]: 2.13 mL/min/kg
half-life ([5]; female, iv, 46.3 mg/kg, rats F, 46.3 mg/kg once-weekly IV, Day 0, read-out: T1/2 (converted)): 9.76 h
Vd [5, 16]: 1.29 L/kg
AUC(0-inf) [5, 17]: 387000 ng·h/mL
C0 [5, 17]: 240 µg/mL
clearance [5, 17]: 2 mL/min/kg
half-life ([5]; female, iv, 46.3 mg/kg, rats F, 46.3 mg/kg once-weekly IV, Day 13, read-out: T1/2 (converted)): 5.76 h
Vd [5, 17]: 0.806 L/kg
AUC(0-inf) [5, 18]: 19200 ng·h/mL
C0 [5, 18]: 27.7 µg/mL
clearance [5, 18]: 2.68 mL/min/kg
half-life ([5]; male, iv, 3.1 mg/kg, rats M, 3.1 mg/kg once-weekly IV, Day 0, read-out: T1/2 (converted)): 8.25 h
Vd [5, 18]: 1.24 L/kg
AUC(0-inf) [5, 19]: 21000 ng·h/mL
C0 [5, 19]: 24 µg/mL
clearance [5, 19]: 2.47 mL/min/kg
half-life ([5]; male, iv, 3.1 mg/kg, rats M, 3.1 mg/kg once-weekly IV, Day 13, read-out: T1/2 (converted)): 9.67 h
Vd [5, 19]: 1.5 L/kg
AUC(0-inf) [5, 20]: 235000 ng·h/mL
C0 [5, 20]: 165 µg/mL
clearance [5, 20]: 2.18 mL/min/kg
half-life ([5]; male, iv, 30.8 mg/kg, rats M, 30.8 mg/kg once-weekly IV, Day 0, read-out: T1/2 (converted)): 10.9 h
Vd [5, 20]: 1.53 L/kg
AUC(0-inf) [5, 21]: 329000 ng·h/mL
C0 [5, 21]: 202 µg/mL
clearance [5, 21]: 1.56 mL/min/kg
half-life ([5]; male, iv, 30.8 mg/kg, rats M, 30.8 mg/kg once-weekly IV, Day 13, read-out: T1/2 (converted)): 10.4 h
Vd [5, 21]: 1.15 L/kg
AUC(0-inf) [5, 22]: 342000 ng·h/mL
C0 [5, 22]: 263 µg/mL
clearance [5, 22]: 2.27 mL/min/kg
half-life ([5]; male, iv, 46.3 mg/kg, rats M, 46.3 mg/kg once-weekly IV, Day 0, read-out: T1/2 (converted)): 7.99 h
Vd [5, 22]: 1.41 L/kg
AUC(0-inf) [5, 23]: 380000 ng·h/mL
C0 [5, 23]: 269 µg/mL
clearance [5, 23]: 2.03 mL/min/kg
half-life ([5]; male, iv, 46.3 mg/kg, rats M, 46.3 mg/kg once-weekly IV, Day 13, read-out: T1/2 (converted)): 7.35 h
Vd [5, 23]: 1.12 L/kg
DN AUCinf ([5]; rats F, 3.1 mg/kg once-weekly IV, Day 0): 6.15 (μg · h/mL)/(mg/kg)
Accumulation Ratio [5, 24]: 0.874
DN AUCinf [5, 24]: 5.37 (μg · h/mL)/(mg/kg)
DN AUCinf ([5]; rats F, 30.8 mg/kg once-weekly IV, Day 0): 7.70 (μg · h/mL)/(mg/kg)
Accumulation Ratio [5, 25]: 1.23
DN AUCinf [5, 25]: 9.45 (μg · h/mL)/(mg/kg)
DN AUCinf ([5]; rats F, 46.3 mg/kg once-weekly IV, Day 0): 7.80 (μg · h/mL)/(mg/kg)
Accumulation Ratio [5, 26]: 1.07
DN AUCinf [5, 26]: 8.35 (μg · h/mL)/(mg/kg)
DN AUCinf ([5]; rats M, 3.1 mg/kg once-weekly IV, Day 0): 6.19 (μg · h/mL)/(mg/kg)
Accumulation Ratio [5, 27]: 1.09
DN AUCinf [5, 27]: 6.76 (μg · h/mL)/(mg/kg)
DN AUCinf ([5]; rats M, 30.8 mg/kg once-weekly IV, Day 0): 7.63 (μg · h/mL)/(mg/kg)
Accumulation Ratio [5, 28]: 1.40
DN AUCinf [5, 28]: 10.7 (μg · h/mL)/(mg/kg)
DN AUCinf ([5]; rats M, 46.3 mg/kg once-weekly IV, Day 0): 7.39 (μg · h/mL)/(mg/kg)
Accumulation Ratio [5, 29]: 1.11
DN AUCinf [5, 29]: 8.20 (μg · h/mL)/(mg/kg)
accumulation or changes in TK parameters after repeated dosing ([5]; rats, once-weekly dosing for 3 weeks): no accumulation or changes in TK parameters were evident
